Laboratory results published in patent US20190167593A1, “C[…] PHARMACEUTICALLY ACCEPTABLE SALT THEREOF, AND APPLICATION OF SAME” (priority 2016, published 2019).
Where “and” joins values, the source holds several entries; their conditions need not be identical. Equal entries are not always repeated. Entries after “also recorded” stand apart in the source; their conditions may differ.

Key:
[1] = system: NAI drug-resistant mutant stain H274Y-PR8 virus; parameters: species or system BALB/c mice; details: mouse, in vivo
H274Y virus = format: cell-based; details: read-out: IC50 against influenza virus replication (plaque formation), H274Y
[2] = system: H274Y mutant influenza virus; details: background statement; cited from earlier work

CCCCS(=O)(=O)N[C@@H]1CCCN([C@@H]2C=C(C(=O)O)C[C@H](NC(=N)N)[C@H]2NC(C)=O)C1 [(3R,4R,5S)-4-acetamido-5-guanidino-3-((3R)-3-n-butylsulfonamidopiperidin)-1-cyclohexene-1-carboxylic acid]
body weight [1]: basically the same as that of the uninfected control mice; also recorded: decreased significantly
disease symptoms [1]: no symptoms of any diseases
mortality rate [1]: 20%
IC50 (H274Y virus): 130 nM and 131 nM

CCOC(=O)C1=C[C@@H](OC(CC)CC)[C@H](NC(C)=O)[C@@H](N)C1.O=P(O)(O)O [Oseltamivir phosphate, ethyl (3R, 4R, 5S)-4-acetamido-5-amino-3-(1-ethylpropoxy)-1-cyclohexene-1-carboxylate phosphate]
disease symptoms [1]: obvious disease symptoms
mortality rate [1]: 40%
IC50 (H274Y virus): 15000 nM
decrease of activity due to the resistance caused by the mutation of H274Y [2]: more than 300 times

Peramivir
body weight [1]: significant weight decline
body weight decrease [1]: about 6%
disease symptoms [1]: mild disease symptoms; also recorded: obvious disease symbols
mortality rate [1]: 60%
IC50 (H274Y virus): 643 nM
